The text below walks through data of US11999742B2, “Substituted pyrrolo[1,2-b]pyridazines as anthelmintics” (BOEHRINGER INGELHEIM VETMEDICA GMBH, priority 2021, dated 2024).

Test [1] relates to Dirofilaria immitis (JYD-34 isolate). The test can be described thus: In vivo efficacy against resistant JYD-34 isolate in immune-deficient NSG mice. Conditions: po, 1080 h, read-out: efficacy (live D. immitis larvae recovered), NSG mice, oral 25 mg/kg on Day 1, 15 and 30, count at Day 45.
Test [2] shares this test system. Nature of the test: In vivo efficacy against resistant JYD-34 isolate in beagle dogs (Biological Example 6). Conditions: necropsy day 120; for % Efficacy / Geometric Mean Live Heartworm Count: beagle dogs, JYD-34 isolate, 5 mg/kg oral, four times at monthly intervals (Days 0, 27, 55, 84); for efficacy against adult heartworm compared with Interceptor: beagles, oral 5 mg/kg four times at monthly intervals.

The test system is the same in test [3]. The test can be described thus: In vivo efficacy against resistant JYD-34 isolate in beagle dogs (Biological Example 8). The following applies: for efficacy at preventing infections with adult heartworm: beagles.
Test [4] has the same test system. The test can be described thus: In vivo efficacy at two dosages against resistant JYD-34 isolate in beagle dogs (Biological Example 7). Conditions: for % Efficacy / Geometric Mean Live Heartworm Count: beagle dogs, JYD-34 isolate; for efficacy against adult heartworm: beagles.
[5] abbreviates: beagle dogs, JYD-34 isolate, 5 mg/kg monthly for four months.
[6] abbreviates: 5 mg/kg single dose monthly for four months.
The mark [7] stands for this setting: 10 mg/kg (over 2 consecutive days, 5 mg/kg each) monthly for four months.
Where [8] appears, read: 5 mg/kg monthly for four months on two consecutive days.

Take `CC(C)(C)c1c(C(=O)N[C@H]2CCOc3ccccc32)cnn2c(-c3cc(F)cc(Cl)c3Cl)c(Cl)cc12` [Compound A502, 4-tert-butyl-6-chloro-7-(2,3-dichloro-5-fluorophenyl)-N-[(4S)-3,4-dihydro-2H-1-benzopyran-4-yl]pyrrolo[1,2-b]pyridazine-3-carboxamide]: the inhibition in vivo at 25 mg/kg in test [1] is 70 to 90%.
As for `Cc1cc2c(C(C)C)c(C(=O)N[C@H]3CCOc4ccccc43)cnn2c1-c1cc(F)cc(Cl)c1Cl` [Compound A489], in test [1], the inhibition in vivo at 25 mg/kg was in the range of 70 to 90%.
Consider `CC(C)(C)c1c(C(=O)N[C@H]2CCOc3ccccc32)cnn2c(-c3cc(Cl)cc(Cl)c3Cl)c(Cl)cc12` [Compound A522], for which, in test [1], the inhibition in vivo at 25 mg/kg was > 90%.
In the case of `Cc1cc2c(C(C)(C)C)c(C(=O)N[C@H]3CCOc4ccccc43)cnn2c1-c1cc(F)cc(F)c1F` [Compound A471], in test [2], the “% Efficacy” value was 39.0%, the “Geometric Mean Live Heartworm Count” value is recorded as 16.5 and the “efficacy against adult heartworm compared with Interceptor” value is listed as “more effective than the commercial product Interceptor™”.
For `Cc1cc2c(C(C)(C)C)c(C(=O)N[C@H]3CCOc4ccccc43)cnn2c1-c1cc(Cl)cc(Cl)c1Cl` [Compound A472], the inhibition in vivo at 25 mg/kg in test [1] is > 90%. In test [3] (setting [5]), the “% Efficacy” value was determined as 100.0% and the “Live Heartworm Count (geo. mean)” value turned out to be 0. In test [3] (5 mg/kg body weight monthly for four months), the “efficacy at preventing infections with adult heartworm” value worked out at 100%.
Turning to `Cc1cc2c(C(C)(C)C)c(C(=O)NN3CCOc4ccccc43)cnn2c1-c1cc(F)cc(Cl)c1Cl` [Compound A495], the inhibition in vivo at 25 mg/kg in test [1] was in the range of 50 to 70%.
On the same count and under the same terms, the value for `O=C(N[C@H]1CCOc2ccccc21)c1cnn2c(-c3cc(F)cc(Cl)c3Cl)c(Cl)cc2c1N1CC(F)(F)C1` [Compound A507] was > 90%.
With `Cc1cc2c(C(C)(C)C)c(C(=O)N[C@H]3CCOc4ccccc43)cnn2c1-c1cc(F)cc(F)c1F` [Compound A566], in test [1], the inhibition in vivo at 25 mg/kg was in the range of 70 to 90%.
Take `CC(C)(C)c1c(C(=O)N[C@H]2CCOc3ccccc32)cnn2c(-c3c(F)cc(F)cc3F)c(Cl)cc12` [Compound A484]: the inhibition in vivo at 25 mg/kg in test [1] fell in the range of 50 to 70%.
In the case of milbemycin oxime [reference compound], in test [3] (Interceptor (milbemycin oxime) positive control group), the “efficacy at preventing infections with adult heartworm” value is on record as 16.6%.
Regarding `Cc1cc2c(C(C)(C)C)c(C(=O)N[C@H]3CCOc4ccccc43)cnn2c1-c1cc(Cl)cc(Cl)c1` [Compound A464], the inhibition in vivo at 25 mg/kg in test [1] lay in the range of 70 to 90%. Moreover, in test [2], the “% Efficacy” value is 38.2%, the “Geometric Mean Live Heartworm Count” value was 16.7 and the “efficacy against adult heartworm compared with Interceptor” value is on record as “more effective than the commercial product Interceptor™”.
Turning to `Cc1cc2c(N3CC(F)(F)C3)c(C(=O)N[C@H]3CCOc4ccccc43)cnn2c1-c1cc(F)cc(Cl)c1Cl` [Compound A504], the inhibition in vivo at 25 mg/kg in test [1] is > 90%.
Regarding `CN(C)c1c(C(=O)N[C@H]2CCOc3ccccc32)cnn2c(-c3cc(Cl)cc(Cl)c3Cl)c(Cl)cc12` [Compound A473], the inhibition in vivo at 25 mg/kg in test [1] was > 90%.
As for `CC(C)(C)c1c(C(=O)N[C@H]2CCOc3ccccc32)cnn2c(-c3cc(F)cc(F)c3F)c(Cl)cc12` [Compound A486], the inhibition in vivo at 25 mg/kg in test [1] is 70 to 90%.
As for `Cc1cc2c(C(C)(C)C)c(C(=O)N[C@H]3CCOc4ccccc43)cnn2c1-c1cc(F)cc(Cl)c1Cl` [Compound A481, 4-tert-butyl-7-(2,3-dichloro-5-fluorophenyl)-N-[(4S)-3,4-dihydro-2H-1-benzopyran-4-yl]-6-methylpyrrolo[1,2-b]pyridazine-3-carboxamide], in test [1], the inhibition in vivo at 25 mg/kg is 70 to 90%. Besides, in test [4] (setting [6]), the “% Efficacy” value is on record as 64.2% and the “Geometric Mean Live Heartworm Count” value stood at 11.3. For the same compound, in test [4] (setting [7]), the “% Efficacy” value amounted to 98.0% and the “Geometric Mean Live Heartworm Count” value turned out to be 0.6. In test [4] (setting [8]), the “efficacy against adult heartworm” value is “about 98%”.
`Cc1cc2c(N3CCOCC3)c(C(=O)N[C@H]3CCOc4ccccc43)cnn2c1-c1cc(F)cc(F)c1F` [Compound A491]: in test [1], the inhibition in vivo at 25 mg/kg is < 50%.
In the case of `Cc1cc2c(N(C)C)c(C(=O)N[C@H]3CCOc4ccccc43)cnn2c1-c1cc(F)cc(Cl)c1Cl` [Compound A493, 7-(2,3-dichloro-5-fluorophenyl)-N-[(4S)-3,4-dihydro-2H-1-benzopyran-4-yl]-4-(dimethylamino)-6-methylpyrrolo[1,2-b]pyridazine-3-carboxamide], the inhibition in vivo at 25 mg/kg in test [1] was > 90%. Also, the results for the “% Efficacy” value in test [4] (setting [6]) and in test [4] (setting [7]) were 99.0% and 100.0%, respectively. Further, the “Geometric Mean Live Heartworm Count” value was determined as 0.3 in test [4] (setting [6]) and 0 in test [4] (setting [7]). The “efficacy against adult heartworm” value is 100% in test [4] (setting [8]) and 99% in test [4] (one single dosage of 5 mg/kg monthly for four months).
With `Cc1cc2c(N3CCOCC3)c(C(=O)N[C@H]3CCOc4ccccc43)cnn2c1-c1cc(Cl)cc(Cl)c1Cl` [Compound A501], the inhibition in vivo at 25 mg/kg in test [1] lay in the range of 70 to 90%.
Still for that read-out and setting: the value for `Cc1cc2c(C(C)C)c(C(=O)N[C@H]3CCOc4ccccc43)cnn2c1-c1cc(Cl)cc(Cl)c1` [Compound A465, 7-(3,5-dichlorophenyl)-N-[(4S)-3,4-dihydro-2H-1-benzopyran-4-yl]-6-methyl-4-(propan-2-yl)pyrrolo[1,2-b]pyridazine-3-carboxamide] was 50 to 70%.
